Test results: patent US20250059195A1, “TRIAZOLONE DERIVATIVE SALT AS NEUTROPHIL ELASTASE INHIBITOR” (CHIESI FARMACEUTICI S.P.A., priority 2021, published 2025)
Where two headings read alike, the source gives them in different places. Each block holds one compound with its values, some of them ahead of it.

Assays:
[1] = rat, in vivo
[2] = Head-out plethysmography (HOP) assay, lung function parameters; settings: rats, dry powder snout-only inhalation
[3] = target: T1, human neutrophil elastase (HNE) (Homo sapiens, UniProt P08246); experiment: HNE-induced lung injury assay (BAL fluid haemoglobin content); format: in vivo, rat; settings: for % Inhibition at 300 μg/Kg (inhibition of HNE-induced haemoglobin content in BALF) / % Inhibition at 600 μg/Kg (inhibition of HNE-induced haemoglobin content in BALF): male Sprague Dawley rats, dry powder nose-only inhalation 3 hours prior to HNE i.t. 100 U/rat, vs HNE-treated vehicle control; for % Inhibition at 300 μg/Kg (inhibition of HNE-induced haemoglobin content in BALF): 300 μg/Kg (0.3 mg/kg); for % Inhibition at 600 μg/Kg (inhibition of HNE-induced haemoglobin content in BALF): 600 μg/Kg (0.6 mg/kg); for inhibition of BAL fluid haemoglobin content, dose dependence: inhalation as dry powder formulation at 0.03, 0.3 and 0.6 mg/kg
T1 sequence (P08246 30-267): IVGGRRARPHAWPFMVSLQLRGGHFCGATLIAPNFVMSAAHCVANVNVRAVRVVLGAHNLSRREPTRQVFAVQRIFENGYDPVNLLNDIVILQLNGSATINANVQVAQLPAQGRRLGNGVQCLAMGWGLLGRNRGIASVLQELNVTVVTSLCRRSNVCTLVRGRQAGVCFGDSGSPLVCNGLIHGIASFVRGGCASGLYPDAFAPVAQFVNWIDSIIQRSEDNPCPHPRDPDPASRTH
Experimental: Then, one hour after the PBS or HNE administration animals were sacrificed and bronchoalveolar lavage (BAL) was performed in order to assess the HNE-induced lung injury measured as haemoglobin concentration.
BAL fluid samples were centrifuged at 800 g for 15 min at 4° C. The supernatant was collected and the pellet was re-suspended in 3 mL of distilled water. A standard curve with known volumes of lysated blood cells was made from a stem solution of lysated blood cells. 150 μL of standards and samples were transferred in duplicate to a 96-well plate and the OD measured at 412 nm.
Percentage of compound efficacy (assessed as inhibition of HNE-induced haemoglobin content in BALF) was calculated following this formula: 100−[(mean of haemoglobin concentration of test compound treated rats exposed to HNE)−(mean of haemoglobin concentration of vehicle treated rats exposed to PBS)]/[(mean of haemoglobin concentration of vehicle treated rats exposed to HNE)−(mean of haemoglobin concentration of vehicle treated rats exposed to PBS)]×100.

[4] = Solubility in water of different salts; format: physicochemical; settings: water at RT
Experimental: The complete dissolution of the material was visually observed. […] From this experiment the xinafoate salt has a solubility lower than 0.05 mg/ml.

[5] = male, Wistar, 0.6 mg/kg, 60 min

increase in PenH area ([1]; male, Wistar, 7 mg/kg, 60 min): about 9 fold | increase in respiratory rate, maximum effect vs vehicle ([1]; male, Wistar, 7 mg/kg, 60 min): 51% | reduced tidal volume, maximum decrease vs vehicle control ([1]; male, Wistar, 7 mg/kg, 60 min): 50% | % of Reduction of tidal volume at the highest tested dose ([1]; male, Wistar, 60 min): 50%
SMILES: CC(=O)[O-].COC(=O)C1=C(C)N(c2cccc(C(F)(F)F)c2)c2n[nH]c(=O)n2[C@@H]1c1ccc(C#N)cc1CC[N+](C)(C)C [Acetate, (2-{5-Cyano-2-[(R)-6-methoxycarbonyl-7-methyl-3-oxo-8-(3-trifluoromethyl-phenyl)-2,3,5,8-tetrahydro-[1,2,4]triazolo[4,3-a]pyrimidin-5-yl]-phenyl}-ethyl)-trimethyl-ammonium acetate salt]

increase in PenH area compared to vehicle ([2]; high dose (5.5 mg/kg)): ~20 fold | reduction in tidal volume, maximum vs vehicle ([2]; high dose (5.5 mg/kg), during inhalation): 38% | increase in PenH area compared to vehicle ([2]; low dose (0.55 mg/kg)): about 8 fold | increase in respiratory rate, maximum effect vs vehicle ([2]; low dose (0.55 mg/kg), during inhalation): 59% | % of Reduction of tidal volume at the highest tested dose ([2]; peak effect vs vehicle (lactose)): 38%
SMILES: COC(=O)C1=C(C)N(c2cccc(C(F)(F)F)c2)c2n[nH]c(=O)n2[C@@H]1c1ccc(C#N)cc1CC[N+](C)(C)C.[Br-] [Bromide, (2-{5-Cyano-2-[(R)-6-methoxycarbonyl-7-methyl-3-oxo-8-(3-trifluoromethyl-phenyl)-2,3,5,8-tetrahydro-[1,2,4]triazolo[4,3-a]pyrimidin-5-yl]-phenyl}-ethyl)-trimethyl-ammonium bromide salt]

increase of PenH compared to vehicle group [1, 5]: about 8 fold | increase of respiratory rate, peak effect vs vehicle (lactose) [1, 5]: 32% | reduction of tidal volume, peak effect vs vehicle [1, 5]: 35% | increase of PenH compared to vehicle group ([1]; male, Wistar, 6 mg/kg, 60 min): ~16 fold | increase of respiratory rate, peak effect vs vehicle (lactose) ([1]; male, Wistar, 6 mg/kg, 60 min): 54% | reduction of tidal volume, peak effect vs vehicle ([1]; male, Wistar, 6 mg/kg, 60 min): 39% | % of Reduction of tidal volume at the highest tested dose ([1]; male, Wistar, 60 min): 35-39%
SMILES: COC(=O)C1=C(C)N(c2cccc(C(F)(F)F)c2)c2n[nH]c(=O)n2[C@@H]1c1ccc(C#N)cc1CC[N+](C)(C)C.CS(=O)(=O)[O-] [Methanesulfonate, (2-{5-Cyano-2-[(R)-6-methoxycarbonyl-7-methyl-3-oxo-8-(3-trifluoromethyl-phenyl)-2,3,5,8-tetrahydro-[1,2,4]triazolo[4,3-a]pyrimidin-5-yl]-phenyl}-ethyl)-trimethyl-ammonium methanesulfonate]
% Inhibition at 300 μg/Kg (inhibition of HNE-induced haemoglobin content in BALF) [3]: 20% | % Inhibition at 600 μg/Kg (inhibition of HNE-induced haemoglobin content in BALF) [3]: 25% | inhibition of BAL fluid haemoglobin content, dose dependence ([3]; rats): dose-dependent inhibition

solubility ([4]; thermodynamic from solid, read-out: Solubility (mg/ml) in water): < 0.05 mg/mL | Solubility (mg/ml) in water [4]: <0.05 mg/mL
SMILES: COC(=O)C1=C(C)N(c2cccc(C(F)(F)F)c2)c2n[nH]c(=O)n2[C@@H]1c1ccc(C#N)cc1CC[N+](C)(C)C [Xinafoate, (2-{5-Cyano-2-[(R)-6-methoxycarbonyl-7-methyl-3-oxo-8-(3-trifluoromethyl-phenyl)-2,3,5,8-tetrahydro-[1,2,4]triazolo[4,3-a]pyrimidin-5-yl]-phenyl}-ethyl)-trimethyl-ammonium xinafoate]
% Inhibition at 300 μg/Kg (inhibition of HNE-induced haemoglobin content in BALF) [3]: 35% | % Inhibition at 600 μg/Kg (inhibition of HNE-induced haemoglobin content in BALF) [3]: 80% | efficacy in inhibiting HNE in vivo, comparison of the salts ([3]; rats, dry powder inhalation): superior efficacy than the methanesulfonate salt | inhibition of BAL fluid haemoglobin content, dose dependence ([3]; rats): dose-dependent inhibition | % of Reduction of tidal volume at the highest tested dose [1]: No variation of any lung function parameters
